From PubChem BioAssay (NCI)
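Cultured in 96-well plates, cells were exposed to test compound for 48 hours across five concentrations. GI50: concentration for 50% inhibition of growth. The concentration for full growth arrest is given as TGI.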

Experiments:
Experiment in all cases: NCI tumour cell line growth inhibition, 48 h
A498 renal = tested on: A498 renal
786-0 renal = tested on: 786-0 renal
HCC-2998 colon = tested on: HCC-2998 colon
UACC-62 melanoma = tested on: UACC-62 melanoma
MOLT-4 leukemia = tested on: MOLT-4 leukemia
SK-MEL-2 melanoma = tested on: SK-MEL-2 melanoma
TK-10 renal = tested on: TK-10 renal
UO-31 renal = tested on: UO-31 renal
CAKI-1 renal = tested on: CAKI-1 renal
SNB-19 CNS = tested on: SNB-19 CNS

| Compound | TGI (A498 renal) | TGI (786-0 renal) | TGI (HCC-2998 colon) | TGI (UACC-62 melanoma) | TGI (MOLT-4 leukemia) | TGI (SK-MEL-2 melanoma) | TGI (TK-10 renal) | TGI (UO-31 renal) | TGI (CAKI-1 renal) | TGI (SNB-19 CNS) | GI50 (A498 renal) | GI50 (786-0 renal) | GI50 (HCC-2998 colon) | GI50 (UACC-62 melanoma) | GI50 (MOLT-4 leukemia) | GI50 (SK-MEL-2 melanoma) | GI50 (TK-10 renal) | GI50 (UO-31 renal) | GI50 (CAKI-1 renal) | GI50 (SNB-19 CNS) |
| --- | --- | --- | --- | --- | --- | --- | --- | --- | --- | --- | --- | --- | --- | --- | --- | --- | --- | --- | --- | --- |
| NC1=C(O)c2cccc3cccc(c23)C1=O | > 100 µM | > 100 µM | > 100 µM | > 100 µM | > 100 µM | > 100 µM | > 100 µM | > 100 µM | > 100 µM | > 100 µM | – | – | – | – | – | – | – | – | – | – |
| Cc1cc(N(CCC#N)CCC#N)ccc1/C=C(\NC(=O)/C=C/c1ccccc1)C(=O)N=[N+]=[N-] | > 100 µM | > 100 µM | > 100 µM | > 100 µM | > 100 µM | > 100 µM | > 100 µM | > 100 µM | > 100 µM | > 100 µM | – | – | – | – | – | – | – | – | – | – |
| N#CC(C(=O)CCCC(=O)Nc1ccccc1[N+](=O)[O-])c1c(Cl)cccc1Cl (stereo not drawn) | > 100 µM | > 100 µM | > 100 µM | > 100 µM | > 100 µM | > 100 µM | > 100 µM | > 100 µM | > 100 µM | > 100 µM | – | – | – | – | – | – | – | – | – | – |
| COc1cc2cc(NCc3cccc(Cl)c3)nc(C)c2cc1OC | 11.6 µM | 20.4 µM | 14.5 µM | 5.41 µM | 30.4 µM | 12.6 µM | 36.6 µM | 14.4 µM | 24.4 µM | 31.8 µM | 1.17 µM | 1.7 µM | 2.27 µM | 0.498 µM | 3.21 µM | 1.56 µM | 4.15 µM | 0.678 µM | 2.7 µM | 2.12 µM |
| COc1ccc2c(c1)[C@@H](NC(C)=O)CCc1cc(OC)c(OC)c(OC)c1-2 | > 100 µM | > 100 µM | 13 µM | > 26.8 µM | > 42.5 µM | > 21.5 µM | > 100 µM | > 100 µM | 99 µM | > 10.5 µM | – | – | – | – | – | – | – | – | – | – |
| Nc1c(C(=O)Nc2cccc(Cl)c2)sc2nc3c(cc12)C(=O)CCC3 | – | > 100 µM | > 100 µM | > 100 µM | > 100 µM | > 100 µM | > 100 µM | > 100 µM | > 100 µM | > 100 µM | 0.134 µM | 0.739 µM | 0.849 µM | 0.349 µM | > 100 µM | 0.488 µM | 36.7 µM | – | 0.438 µM | 0.529 µM |
| NC(N)NCCCc1cn2c(n1)C1CCCN1C(=O)C2Cc1ccccc1 (stereo not drawn) | > 100 µM | > 100 µM | > 100 µM | > 100 µM | > 100 µM | > 100 µM | > 100 µM | > 100 µM | > 100 µM | > 100 µM | – | – | – | – | – | – | – | – | – | – |
| O=C(O)/C=C/c1ccc(O)c(O)c1 | > 100 µM | > 100 µM | > 100 µM | > 100 µM | > 100 µM | > 100 µM | > 100 µM | > 100 µM | > 100 µM | > 100 µM | – | – | – | – | – | – | – | – | – | – |
| CC1CCCCCC(=O)c2c(O)cc(O)cc2CC(=O)O1 (stereo not drawn) | > 100 µM | > 100 µM | > 100 µM | > 100 µM | > 100 µM | > 100 µM | > 100 µM | > 100 µM | > 100 µM | > 100 µM | – | – | – | – | – | – | – | – | – | – |
| O=c1nc2n(-c3cccc(Cl)c3)c3ccc([N+](=O)[O-])cc3cc-2c(=O)[nH]1 | > 25 µM | 9.5 µM | 11 µM | 8.38 µM | > 25 µM | > 25 µM | 13.9 µM | 13 µM | 16 µM | > 25 µM | 16.7 µM | 4.49 µM | 4.92 µM | 3.54 µM | 2.02 µM | > 25 µM | 7.27 µM | 5.87 µM | 5.71 µM | 7.5 µM |
| COC(=O)N[C@H]1CCc2cc(OC)c(OC)c(OC)c2-c2ccc(SC)c(=O)cc21 | < 0.0255 µM | > 100 µM | > 100 µM | > 100 µM | > 70.5 µM | > 100 µM | > 100 µM | > 100 µM | > 100 µM | > 100 µM | < 0.01 µM | < 0.01 µM | < 0.01 µM | < 0.01 µM | < 0.01 µM | 1.76 µM | 13.1 µM | < 0.0447 µM | < 0.0166 µM | < 0.01 µM |
| CN1CCN(Cc2ccc(NC(=O)c3cncc(C#Cc4cnc(N)c5ncccc45)c3)cc2C(F)(F)F)CC1 | 0.652 µM | 2.52 µM | 16.7 µM | 1.93 µM | 5.16 µM | 0.468 µM | 3.68 µM | 1.21 µM | 4.07 µM | 11.8 µM | 0.141 µM | 1.12 µM | 0.539 µM | 0.341 µM | 0.239 µM | 0.142 µM | 0.686 µM | 0.242 µM | 0.231 µM | 2.11 µM |
| O=[N+]([O-])c1ccc(C2=NCCO2)cc1 | > 100 µM | > 100 µM | > 100 µM | > 100 µM | > 100 µM | > 100 µM | > 100 µM | > 100 µM | > 100 µM | > 100 µM | > 100 µM | > 100 µM | > 100 µM | > 100 µM | > 100 µM | > 100 µM | > 100 µM | > 100 µM | > 100 µM | > 100 µM |
| C=CC1(C)CCC2C(=CCC3C2(C)CC(O)C(O)C3(C)COC2OC(CO)C(O)C(O)C2O)C1 (stereo not drawn) | > 100 µM | > 100 µM | > 100 µM | > 100 µM | > 100 µM | > 100 µM | > 100 µM | > 100 µM | > 100 µM | > 100 µM | – | – | – | – | – | – | – | – | – | – |
| COC(=O)[C@@H](C)C[C@H](Cc1ccccc1)NC(=O)c1nc([C@@H](C[C@H](C(C)C)N(C)C(=O)[C@@H](NC(=O)[C@H]2C[C@H](O)CCN2C)C(C)C)OC(C)=O)sc1C(C)C | 0.0881 µM | 4.65 µM | 4.52 µM | > 11.1 µM | > 11.1 µM | > 11.1 µM | > 11.1 µM | > 11.1 µM | > 9.69 µM | > 11.1 µM | 0.00752 µM | 0.0337 µM | 0.00353 µM | 0.00243 µM | 0.0117 µM | 0.00318 µM | 0.319 µM | 0.504 µM | 0.115 µM | 0.00424 µM |
| O=C(O)c1ccc(N(/C=C/C(=O)C(F)(F)F)Cc2ccc(Cl)cc2)cc1 | 62.9 µM | > 100 µM | 44.3 µM | 66.3 µM | > 100 µM | 53.3 µM | 60.8 µM | 15.7 µM | > 100 µM | > 100 µM | 22 µM | 31.4 µM | 19.8 µM | 24 µM | 34.8 µM | 19.1 µM | 27 µM | 1.19 µM | 34.6 µM | 47.9 µM |
